# Earlier results, collected in patent publication US12178826B2, “Formulations for the delivery of autophagy stimulating trehalose” (priority 2017, dated 2024).
# Columns and labels:
# [1] = tested on: mutant SOD1 transgenic mice; conditions: Trehalose administration
# [2] = tested on: NSC34 motoneuron cells
# [3] = after inhalation; general statement, no test described
smiles,measurement,setting,value
"OC[C@H]1O[C@H](O[C@H]2O[C@H](CO)[C@@H](O)[C@H](O)[C@H]2O)[C@H](O)[C@@H](O)[C@@H]1O [Trehalose, (2R,3S,4S,5R,6R)-2-(Hydroxymethyl)-6-[(2R,3R,4S,5S,6R)-3,4,5-trihydroxy-6-(hydroxymethyl)oxan-2-yl]oxyoxane-3,4,5-triol]",accumulation of SOD1 aggregates,[1],decreased accumulation of SOD1 aggregates
same,life span,[1],significantly prolonged life span
same,motoneuron survival,[1],enhanced motoneuron survival
same,mutant SOD1 degradation by autophagy,[2],led to mutant SOD1 degradation by autophagy
same,time to absorption from the lungs into the bloodstream,[3],≤ 2 h
